These results are taken from PMC4059138, “Structural Basis for Multiple Sugar Recognition of Jacalin-related Human ZG16p Lectin*^([image sbox.jpg])” (The Journal of Biological Chemistry, 2014).

Assay [1] deals with T1, 15N-labeled human ZG16p(21–167) (Homo sapiens, UniProt O60844).
T1 construct: gene ZG16; residues 21-167 (signal peptide removed), 15N-labelled, E. coli pCold-PDI vector, tag removed as for the other construct; the purification says 21-159 for the same labelled protein; monomer
T1 sequence (O60844 21-167): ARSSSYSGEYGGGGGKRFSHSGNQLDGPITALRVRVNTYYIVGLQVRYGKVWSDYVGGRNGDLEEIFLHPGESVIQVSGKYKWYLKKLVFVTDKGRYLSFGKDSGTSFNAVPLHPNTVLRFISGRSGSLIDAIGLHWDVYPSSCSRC
The experiment in a line: 1H-15N HSQC NMR titration. Type of assay: binding. The text has this: 1H-15N HSQC NMR titration on 15N-labeled human ZG16p(21–167)

The target of assay [2] is T2, human ZG16p(21–159) (Homo sapiens, UniProt O60844).
T2 construct: gene ZG16; residues 21-159, expressed in E. coli as (His)6-MBP fusion, tag removed by TEV protease; monomer
T2 sequence (O60844 21-159): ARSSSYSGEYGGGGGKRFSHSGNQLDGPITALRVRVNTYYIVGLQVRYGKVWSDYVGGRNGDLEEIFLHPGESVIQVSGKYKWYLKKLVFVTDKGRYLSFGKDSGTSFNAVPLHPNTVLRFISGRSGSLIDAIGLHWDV
The experiment in a line: X-ray crystallography, soaking, […] Å. The following applies: pH 6.5; mannose-binding pocket.

For assay [3], the target named is T2, human ZG16p(21–159). In words: X-ray crystallography, soaking, […] Å. The settings on record: pH 6.5; mannose-binding pocket. The source holds these as a separate data set.
In assay [4] the target is T3, Human ZG16p(21–167), 15N-labeled (human, UniProt O60844 21-167, uniformly 15N-labeled).
T3 construct: zymogen granule protein 16 (ZG16p), human, residues 21-167; the same paragraph also calls the 15N-labeled protein ZG16p(21–159); also called zymogen granule protein 16; 15N-labeled ZG16p; source: E. coli, pCold-PDI vector, 15N-labeled Spectra 9 medium, purified (Ni-Sepharose, size exclusion chromatography)
T3 sequence (looked up): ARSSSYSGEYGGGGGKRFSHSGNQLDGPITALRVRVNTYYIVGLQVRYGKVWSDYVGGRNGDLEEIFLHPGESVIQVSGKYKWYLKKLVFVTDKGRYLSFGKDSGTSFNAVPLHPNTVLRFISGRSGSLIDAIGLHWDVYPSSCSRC
The experiment in a line: NMR titration; 1H-15N HSQC of 0.1–0.15 mM 15N-labeled ZG16p with increasing amounts of ligand; 298 K; PBS, pH 6.5, 10% D2O; Kd fitted from chemical shift changes (n = 3). The settings on record: both partners purified.

[5] abbreviates: PBS pH 6.5, 10% D2O, 298 K, mannose-binding pocket.

Like-named read-outs stand apart in the source and are kept apart here. No end group written: not given here. *: point of attachment. αMan = OC[C@H]1O[C@H](*)[C@@H](O)[C@@H](O)[C@@H]1O

On to `OC[C@H]1O[C@@H](O[C@H]2[C@H](O)[C@@H](CO)OC(O)[C@@H]2O)[C@H](O)[C@@H](O)[C@@H]1O` (stereo partly shown) [Glcβ1–3Glc], for which the Kd – broadly, the free concentration of one partner at which half of the binding sites on the other are occupied at equilibrium, for simple one-to-one binding – in assay [1] (setting [5]) is 7 ± 4 mM.
Regarding `N[C@@H](CO[C@H]1O[C@H](CO)[C@@H](O)[C@H](O)[C@@H]1O)C(=O)O` [Man-O-Ser], on human ZG16p(21–159) [2], the “X-ray crystallography, soaking, 2.1 Å” value is “structures of human ZG16p in complex with Man-O-Ser and Man-O-Thr were determined”.
For `C[C@@H](O[C@H]1O[C@H](CO)[C@@H](O)[C@H](O)[C@@H]1O)[C@H](N)C(=O)O` [Man-O-Thr], the “X-ray crystallography, soaking, 2.7 Å” value on human ZG16p(21–159) [3] is “structures of human ZG16p in complex with Man-O-Ser and Man-O-Thr were determined”. The molecule further returned a Kd in assay [1] of 19 ± 11 mM.
Consider `OC[C@H]1O[C@H](O[C@H]2[C@H](O)[C@@H](CO)OC(O)[C@H]2O)[C@@H](O)[C@@H](O)[C@@H]1O` (stereo partly shown) [Manα1–3Man], for which the affinity in assay [1] (setting [5]), expressed as Kd, was 13 ± 7 mM.
Heparin tetrasaccharide yielded a Kd in assay [1] (PBS pH 6.5, 10% D2O, 298 K, heparin site on flat surface adjacent to the mannose pocket) of 2 ± 1 mM.

B1: Man-α-O-heptapeptide Val-Glu-Pro-(Man-α-O-Thr)-Ala-Val-Ala (peptide)
peptide: VEPT(αMan)AVA
notes: Glycopeptide; also called Man-O-peptide; source: synthetic peptide (solid phase, Fmoc; HPLC and Sephadex G-15)
For B1, the Kd in assay [4] came to 3 mM.
